This note sets out measurements from US20150031686A1, “PHENYL-OXAZOLYL DERIVATIVES, PREPARATION METHOD THEREOF, AND RELATED APPLICATION OF THE PHENYL-OXAZOLYL DERIVATIVES AS AN IMPDH INHIBITOR” (INSTITUTE OF MEDICINAL BIOTECHNOLOGY, CHINESE ACADEMY OF …, priority 2012, published 2015).

Values after ≈ are worked out from the molar mass of the structure shown.

This test concerns Coxsackie virus type B3 (COX-B3). The test can be described thus: Anti-Coxsackie virus type B3 (COX-B3) activity, CPE in Vero cells. In kind it is cell-based. Conditions: Reed-Muench. As to the method:
With Vero (African green monkey kidney) cells as viral hosts, inhibitory effects of the compounds of present invention on the grades of pathological lesions by coxsackievirus B3 (COX-B3), B6 (COX-B6) viruses in Vero cells were determined. The measured results of viral inhibitory activity of the compounds are shown in Table 3 and Table 4; wherein RBV is the control drug ribavirin. The inhibitory activities of the measured compounds against coxsackievirus B3, B6 were stronger than the control.
Screening of Anti-B3, B6 Type Coxsackie Viruses (COX-B3, COX-B6) Activity of the Samples
Prepare stock solutions of COX-B3 (or COX-B6) virus strains as well as tested compounds in DMSO before use. Before tests, dilute the stock solution with culture solution into a certain concentration and then dilute 3 times to make a total of eight dilutions. Use ribavirin (RBV) as positive control. Test procedures are as follows: seed Vero cells into 96-well culture plates, infect with 10^−5 Coxsackie virus of B3 (or B6) type, 24 hours later; adsorb subsequently for 2 hours, then discard the virus solution, add in the sample compounds and the positive control according to the abovementioned dilutions, set cell control wells and virus control wells simultaneously. When the cytopathic effect (CPE) of cells in the virus control wells reach 4+, observe CPE of the cells in each group. Use Reed-Muench method to calculate 50% inhibitory concentration (IC50) of the sample compounds against coxsackie virus B3 (or B6) type.
Regarding `COc1cc(CNCc2ccc(Cl)s2)ccc1-c1cnco1` [Compound 77, N-(5-chlorothien-2-ylmethyl)-3-methoxy-4-(oxazol-5-yl) benzylamine], the half-inhibitory concentration (IC50) stood at 0.35 µg/mL (≈ 1.05 µM).
With `COc1cc(CNCc2cccc3nonc23)ccc1-c1cnco1` [Compound 78, N-(benzo[1,2,5]oxadiazol-4-ylmethyl)-3-methoxy-4(oxazol-5-yl) benzylamine], the IC50 worked out at 0.36 µg/mL (≈ 1.07 µM).
In turn, `Cc1ccc(-c2cnco2)cc1NCc1c(O)ccc2ccccc12` [Compound 79, 1-(2-methyl-5-oxazol-5-ylanilino) methyl-naphthol-2] registered an IC50 of 0.35 µg/mL (≈ 1.06 µM).
Compound `COc1cc(N(CCc2cc3ccccc3s2)C(=O)C(C)Br)ccc1-c1cnco1` (stereo not drawn) [Compound 80, N-(2-benzothien-2-yl-ethyl)-N-(3-methoxy-4-oxazol-5-yl)-2-bromopropionamide] showed an IC50 of 0.24 µg/mL (≈ 0.494 µM).
Turning to `COc1cc(NCCc2nnc3ccccc3c2Cl)ccc1-c1cnco1` [Compound 81, N-[2-(4-chlorocinnolin-3-yl)-ethyl]-3-methoxy-4-(oxazol-5-yl) aniline], inhibition was half-maximal at 0.29 µg/mL (≈ 0.761 µM) (IC50).
`COc1cc(NCCc2cc3cc(Cl)ccc3s2)ccc1-c1cnco1` [Compound 82, N-[2-(5-chlorobenzathien-2-yl)-ethyl]-3-methoxy-4-(oxazol-5-yl) aniline] returned a half-inhibitory concentration (IC50) of 0.33 µg/mL (≈ 0.857 µM).
The result for `COc1cc(NCC2=C(Cl)c3cc(Cl)ccc3SC2)ccc1-c1cnco1` [Compound 83, N-(4,6-dichloro-2H-sulfurbenzopyran-3-ylmethyl)-3-methoxy-4-(oxazol-5-yl) aniline] reads 0.42 µg/mL (≈ 1 µM); that for `COc1cc(CN(Cc2cc3cc(C)ccc3s2)S(C)(=O)=O)ccc1-c1cnco1` [Compound 84, N-(3-methoxy-4-oxazol-5-yl-benzyl)-N-(5-methyl-benzothien-2-ylmethyl)-methylsulfonamide], 0.34 µg/mL (≈ 0.768 µM).
To `COc1cc(CNCc2csc3ccccc23)ccc1-c1cnco1` [Compound 85, N-(benzothien-3-ylmethyl)-3-methoxy-4-(oxazol-5-yl) benzylamine] belongs 0.44 µg/mL (≈ 1.26 µM); to `COc1cc(CNCc2ccc3c(cnn3C)c2)ccc1-c1cnco1` [Compound 86, N-(1-methyl-1H-indazole-5-methyl)-3-methoxy-4-(oxazol-5-yl) benzylamine], 0.34 µg/mL (≈ 0.976 µM).
To `COc1cc(CN(C)Cc2csc3ccc(Cl)cc23)ccc1-c1cnco1` [Compound 87, N-methyl-N-(5-chlorobenzothien-3-ylmethyl)-3-methoxy-4-(oxazol-5-yl) benzylamine] belongs 0.35 µg/mL (≈ 0.877 µM); to `COc1cc(NCc2ccc3c(c2)Sc2ccccc2N3C)ccc1-c1cnco1` [Compound 88, N-(10-methyl-10H-phenothiazin-3-ylmethyl)-3-methoxy-4-oxazol-5-yl aniline], 0.36 µg/mL (≈ 0.866 µM); to `Cc1ccc(CNCc2ccc(-c3cnco3)c(Cl)c2)s1` [Compound 89, N-(5-methylthien-2-ylmethyl)-3-chloride-4-oxazol-5-yl benzylamine], 0.26 µg/mL (≈ 0.815 µM).
In turn, `Clc1cc(NCc2cccc3c2sc2ccccc23)ccc1-c1cnco1` [Compound 90, N-dibenzothien-4-ylmethyl-3-chloro-4-oxazol-5-yl aniline] came in with an IC50 of 0.26 µg/mL (≈ 0.665 µM).
`Clc1cc(CNCc2cccc3nsnc23)ccc1-c1cnco1` [Compound 91, N-(benzo[1,2,5]-thiadiazol-4-ylmethyl)-3-chloro-4-oxazol-5-yl benzylamine] came in with an IC50 of 0.28 µg/mL (≈ 0.785 µM).
In the case of `COc1cc(NCC2=COc3ccc(O)cc3C2)ccc1-c1cnco1` [Compound 92, 3-(3-methoxy-4-oxazol-5-ylanilino) methyl-4-H-benzopyran-6-ol], inhibition was half-maximal at 0.63 µg/mL (≈ 1.8 µM) (IC50).
Regarding `COc1cc(CNCc2ccc(Br)o2)ccc1-c1cnco1` [Compound 93, N-(5-bromofuran-2-ylmethyl)-3-methoxy-4-(oxazol-5-yl) benzylamine], half-maximal inhibition (IC50) required 0.88 µg/mL (≈ 2.42 µM).
`COc1cc(NCc2c3ccccc3nc3ccc(C)cc23)ccc1-c1cnco1` [Compound 94, N-(2-methylacridine-9-methyl)-3-methoxy-4-(oxazol-5-yl) aniline]: the IC50 stood at 0.68 µg/mL (≈ 1.72 µM).
